Data reported in the NIST ThermoML archive (doi:10.1016/j.jct.2015.11.023).

How the values were obtained:
[1] = wn = mass fraction of the nth substance listed; settings: for surface tension liquid-gas: Maximal bubble pressure; for mass density: 100 kPa, Liquid, Vibrating tube method
[2] = refractive index (Na D-line) (dimensionless); wn = mass fraction of the nth substance listed; settings: 100 kPa, Liquid, Standard Abbe refractometry

CCC[n+]1ccccc1.N#C[N-]C#N [1-propylpyridinium dicyanamide] + O
Settings | mass density [kg/m3] | refractive index | surface tension liquid-gas [mN/m]
[1], 303.15 K, w2 = 0.00121 | 1086.72 | – | –
[1], 303.15 K, w2 = 0.00205 | – | – | 58.1
[1], 303.15 K, w2 = 0.00271 | 1086.48 | – | –
[1], 303.15 K, w2 = 0.0035 | – | – | 58.4
[1], 303.15 K, w2 = 0.00412 | 1086.25 | – | –
[1], 303.15 K, w2 = 0.005 | – | – | 58.7
[1], 303.15 K, w2 = 0.00573 | 1085.98 | – | –
[1], 303.15 K, w2 = 0.00649 | – | – | 59
[1], 303.15 K, w2 = 0.00724 | 1085.74 | – | –
[1], 303.15 K, w2 = 0.00802 | – | – | 59.3
[1], 308.15 K, w2 = 0.00121 | 1083.57 | – | –
[1], 308.15 K, w2 = 0.00205 | – | – | 57.8
[1], 308.15 K, w2 = 0.00271 | 1083.3 | – | –
[1], 308.15 K, w2 = 0.0035 | – | – | 58.1
[1], 308.15 K, w2 = 0.00412 | 1083.06 | – | –
[1], 308.15 K, w2 = 0.005 | – | – | 58.4
[1], 308.15 K, w2 = 0.00573 | 1082.77 | – | –
[1], 308.15 K, w2 = 0.00649 | – | – | 58.7
[1], 308.15 K, w2 = 0.00724 | 1082.49 | – | –
[1], 308.15 K, w2 = 0.00802 | – | – | 59
[1], 313.15 K, w2 = 0.00121 | 1080.46 | – | –
[1], 313.15 K, w2 = 0.00205 | – | – | 57.4
[1], 313.15 K, w2 = 0.00271 | 1080.2 | – | –
[1], 313.15 K, w2 = 0.0035 | – | – | 57.8
[1], 313.15 K, w2 = 0.00412 | 1079.95 | – | –
[1], 313.15 K, w2 = 0.005 | – | – | 58.1
[1], 313.15 K, w2 = 0.00573 | 1079.65 | – | –
[1], 313.15 K, w2 = 0.00649 | – | – | 58.4
[1], 313.15 K, w2 = 0.00724 | 1079.36 | – | –
[1], 313.15 K, w2 = 0.00802 | – | – | 58.7
[1], 318.15 K, w2 = 0.00121 | 1077.36 | – | –
[1], 318.15 K, w2 = 0.00205 | – | – | 57.1
[1], 318.15 K, w2 = 0.00271 | 1077.12 | – | –
[1], 318.15 K, w2 = 0.0035 | – | – | 57.5
[1], 318.15 K, w2 = 0.00412 | 1076.87 | – | –
[1], 318.15 K, w2 = 0.005 | – | – | 57.8
[1], 318.15 K, w2 = 0.00573 | 1076.55 | – | –
[1], 318.15 K, w2 = 0.00649 | – | – | 58.1
[1], 318.15 K, w2 = 0.00724 | 1076.27 | – | –
[1], 318.15 K, w2 = 0.00802 | – | – | 58.4
[1], 323.15 K, w2 = 0.00121 | 1074.29 | – | –
[1], 323.15 K, w2 = 0.00205 | – | – | 56.9
[1], 323.15 K, w2 = 0.00271 | 1074.02 | – | –
[1], 323.15 K, w2 = 0.0035 | – | – | 57.2
[1], 323.15 K, w2 = 0.00412 | 1073.79 | – | –
[1], 323.15 K, w2 = 0.005 | – | – | 57.5
[1], 323.15 K, w2 = 0.00573 | 1073.46 | – | –
[1], 323.15 K, w2 = 0.00649 | – | – | 57.8
[1], 323.15 K, w2 = 0.00724 | 1073.19 | – | –
[1], 323.15 K, w2 = 0.00802 | – | – | 58.2
[1], 328.15 K, w2 = 0.00121 | 1071.24 | – | –
[1], 328.15 K, w2 = 0.00205 | – | – | 56.5
[1], 328.15 K, w2 = 0.00271 | 1070.97 | – | –
[1], 328.15 K, w2 = 0.0035 | – | – | 56.8
[1], 328.15 K, w2 = 0.00412 | 1070.72 | – | –
[1], 328.15 K, w2 = 0.005 | – | – | 57.2
[1], 328.15 K, w2 = 0.00573 | 1070.41 | – | –
[1], 328.15 K, w2 = 0.00649 | – | – | 57.5
[1], 328.15 K, w2 = 0.00724 | 1070.15 | – | –
[1], 328.15 K, w2 = 0.00802 | – | – | 57.8
[1], 333.15 K, w2 = 0.00121 | 1068.17 | – | –
[1], 333.15 K, w2 = 0.00205 | – | – | 56.2
[1], 333.15 K, w2 = 0.00271 | 1067.92 | – | –
[1], 333.15 K, w2 = 0.0035 | – | – | 56.5
[1], 333.15 K, w2 = 0.00412 | 1067.67 | – | –
[1], 333.15 K, w2 = 0.005 | – | – | 56.9
[1], 333.15 K, w2 = 0.00573 | 1067.34 | – | –
[1], 333.15 K, w2 = 0.00649 | – | – | 57.2
[1], 333.15 K, w2 = 0.00724 | 1067.04 | – | –
[1], 333.15 K, w2 = 0.00802 | – | – | 57.6
[1], 338.15 K, w2 = 0.00121 | 1065.15 | – | –
[1], 338.15 K, w2 = 0.00205 | – | – | 55.8
[1], 338.15 K, w2 = 0.00271 | 1064.88 | – | –
[1], 338.15 K, w2 = 0.0035 | – | – | 56.1
[1], 338.15 K, w2 = 0.00412 | 1064.64 | – | –
[1], 338.15 K, w2 = 0.005 | – | – | 56.5
[1], 338.15 K, w2 = 0.00573 | 1064.3 | – | –
[1], 338.15 K, w2 = 0.00649 | – | – | 56.8
[1], 338.15 K, w2 = 0.00724 | 1063.99 | – | –
[1], 338.15 K, w2 = 0.00802 | – | – | 57.1
[2], 303.15 K, w2 = 0.00205 | – | 1.5386 | –
[2], 303.15 K, w2 = 0.00353 | – | 1.5384 | –
[2], 303.15 K, w2 = 0.00496 | – | 1.5381 | –
[2], 303.15 K, w2 = 0.00639 | – | 1.5378 | –
[2], 303.15 K, w2 = 0.0079 | – | 1.5375 | –
[2], 308.15 K, w2 = 0.00205 | – | 1.537 | –
[2], 308.15 K, w2 = 0.00353 | – | 1.5368 | –
[2], 308.15 K, w2 = 0.00496 | – | 1.5365 | –
[2], 308.15 K, w2 = 0.00639 | – | 1.5362 | –
[2], 308.15 K, w2 = 0.0079 | – | 1.5359 | –
[2], 313.15 K, w2 = 0.00205 | – | 1.5352 | –
[2], 313.15 K, w2 = 0.00353 | – | 1.5349 | –
[2], 313.15 K, w2 = 0.00496 | – | 1.5347 | –
[2], 313.15 K, w2 = 0.00639 | – | 1.5344 | –
[2], 313.15 K, w2 = 0.0079 | – | 1.5341 | –
[2], 318.15 K, w2 = 0.00205 | – | 1.5338 | –
[2], 318.15 K, w2 = 0.00353 | – | 1.5335 | –
[2], 318.15 K, w2 = 0.00496 | – | 1.5332 | –
[2], 318.15 K, w2 = 0.00639 | – | 1.5329 | –
[2], 318.15 K, w2 = 0.0079 | – | 1.5327 | –
[2], 323.15 K, w2 = 0.00205 | – | 1.5325 | –
[2], 323.15 K, w2 = 0.00353 | – | 1.5322 | –
[2], 323.15 K, w2 = 0.00496 | – | 1.5319 | –
[2], 323.15 K, w2 = 0.00639 | – | 1.5316 | –
[2], 323.15 K, w2 = 0.0079 | – | 1.5313 | –
[2], 328.15 K, w2 = 0.00205 | – | 1.5308 | –
[2], 328.15 K, w2 = 0.00353 | – | 1.5306 | –
[2], 328.15 K, w2 = 0.00496 | – | 1.5303 | –
[2], 328.15 K, w2 = 0.00639 | – | 1.5301 | –
[2], 328.15 K, w2 = 0.0079 | – | 1.5298 | –
[2], 333.15 K, w2 = 0.00205 | – | 1.529 | –
[2], 333.15 K, w2 = 0.00353 | – | 1.5288 | –
[2], 333.15 K, w2 = 0.00496 | – | 1.5286 | –
[2], 333.15 K, w2 = 0.00639 | – | 1.5283 | –
[2], 333.15 K, w2 = 0.0079 | – | 1.5281 | –
[2], 338.15 K, w2 = 0.00205 | – | 1.5273 | –
[2], 338.15 K, w2 = 0.00353 | – | 1.527 | –
[2], 338.15 K, w2 = 0.00496 | – | 1.5268 | –
[2], 338.15 K, w2 = 0.00639 | – | 1.5265 | –
[2], 338.15 K, w2 = 0.0079 | – | 1.5263 | –
